# Measurements taken from patent US20210386367A1, “DEVICES AND SYSTEMS FOR GASTROINTESTINAL MICROBIOME DETECTION AND MANIPULATION” (Progenity, Inc., priority 2018, published 2021).
# Several values for one entry are separate records, joined by “and”; a condition that tells them apart may be missing. Identical values can stand only once. Like-named read-outs stand apart in the source and are kept apart here.
# How the values were obtained:
# Bacteroides fragilis = experiment: Agar dilution MIC, 30 clinical isolates; assay type: cell-based; conditions: for Mode: modal MIC
# B. vulgatus ATCC 8482 = experiment: Broth microdilution MIC (time-kill study); assay type: cell-based, Bacteroides vulgatus
# E. coli ATCC 35218 = experiment: Time-kill assay; assay type: cell-based, Escherichia coli; conditions: 2×, 4×, 8× MIC; 2, 6, 24 hr
# [1] = in vivo, cited from earlier work
# Bacteroides spp. = experiment: Spontaneous mutation frequency assay; assay type: cell-based
# Method: Initial values of the MIC were determined by agar dilution in accordance with guidelines from the Clinical and Laboratory Standards Institute (CLSI; (1) “Methods for Dilution Antimicrobial Susceptibility Tests for Bacteria That Grow Aerobically; Approved Standard; 11th ed.,” CLSI standard M07, 2018; (2) “Methods for Antimicrobial Susceptibility Testing of Anaerobic Bacteria; Approved Standard—Eighth Edition,” CLSI document M11-A8, 2012.).
# The agar plates were prepared by mixing a ratio of 1.0 mL of concentrated drug to 49.0 mL of the appropriate molten (47° C.) agar; the drug-supplemented agar was mixed, poured into 15-by-150 mm petri dishes and allowed to solidify and dry at room temperature prior to inoculation. […] Each plate was allowed to cool at room temperature for at least 1 hr.
# The isolates were streaked onto the appropriate agar medium and incubated for 20 hr (aerobes) or 48 hr (Bacteroides under anaerobic conditions). Using a sterile swab, several well-isolated colonies were removed and resuspended in sterile saline at a heavy cell density. Each plate was inoculated with 0.5 mL of the cell suspension (each test concentration was inoculated in duplicate). The target inoculum for each spontaneous mutation plate was 10^9-10 CFU. In addition, a portion of the inoculum from each isolate was enumerated by making dilutions, spreading on agar and counting colonies.
# Once the inoculum was absorbed into the agar, the plates were incubated at 35° C. Aerobes were examined at 24 and 48 hr, and resulting colonies were counted. Bacteroides were incubated anaerobically for 48-72 hr in the anaerobe chamber and colonies were counted.
# Colony counts from plates used to enumerate the initial inoculum density and from the resulting spontaneous mutation frequency test plates were determined. The inoculum size was calculated as CFU inoculated per plate. The spontaneous mutation frequency was calculated using the counts from duplicate spontaneous mutation assay test plates as follows:
# If there were no colonies on the antibiotic selection plates, the spontaneous mutation frequency was reported as less than the frequency observed with one colony to indicate that the spontaneous mutation frequency was less than the limit of detection (one CFU). […] The mutation prevention concentration (MPC) was reported as the lowest concentration for which no mutants were selected.
# [2] = test system: three isolates each of E. coli, Streptococcus spp. and Bacteroides spp.; experiment: Time-kill assay, overall summary; assay type: cell-based
# Method: MIC values were determined by broth microdilution in accordance with guidelines from the Clinical and Laboratory Standards Institute (CLSI; (1) “Methods for Dilution Antimicrobial Susceptibility Tests for Bacteria That Grow Aerobically; Approved Standard; 11th ed.,” CLSI standard M07, 2018; (2) “Performance Standards for Antimicrobial Susceptibility Testing; 28th ed.,” CLSI supplement M100, 2018).
# During the time-kill study, the test flasks were sampled at 2, 6, and 24 hr for determination of viable counts using the track dilution method as described above. Bacteroides was also sampled at 48 hr. All E. coli plates were incubated for 20-24 hr at 35° C., Streptococci for 20-24 hr at 35° C. in a CO2 incubator, and Bacteroides for approximately 48 hr at 35° C. in the anaerobe chamber. Colonies were counted manually, and the CFU/mL was determined from the average count of the duplicate plates, followed by the calculation of the log10 CFU/mL. The limit of detection for the assay was 50 CFU/mL.
# B. ovatus MMX 3503 [3] = experiment: Broth microdilution MIC (time-kill study); assay type: cell-based, Bacteroides ovatus
# [4] = test system: Streptococcus spp. (S. pneumoniae ATCC 49619, S. pyogenes ATCC 49399, S. agalactiae ATCC 13813); conditions: cited from earlier work
# [5] = test system: Streptococcus agalactiae clinical isolates; experiment: MIC distribution against clinical isolates; assay type: cell-based
# In short: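 MIC is the lowest agent concentration preventing growth, determined by broth or agar dilution with serial compound dilutions and incubation under appropriate conditions (e.g., overnight at 37° C.). MIC90 is the concentration inhibiting ≥90% of isolates in the test population.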
# E. coli ATCC 25922 = conditions: cited from earlier work
# [6] = test system: E. coli spontaneous mutants; conditions: E. coli ATCC 25922; CLSI QC range shown in parentheses; cited from earlier work
# Enterobacteriaceae = conditions: cited from earlier work
# B. ovatus MMX 3503 [7] = experiment: Time-kill assay; assay type: cell-based, Bacteroides ovatus; conditions: for time-kill kinetics outcome (bactericidal = ≥3 log reduction in CFU per mL): 2×, 4×, 8× MIC, 2, 6, 24, 48 hr
# [8] = 30 Bacteroides fragilis clinical isolates
# [9] = Phocaeicola vulgatus, ATCC8482, broth microdilution, read-out: MIC
# [10] = Bacteroides fragilis, read-out: MIC50
# [11] = Bacteroides fragilis, read-out: MIC90
# [12] = MIC 0.03 μg/mL, 20 S. agalactiae isolates
# [13] = MIC 0.06 μg/mL, 20 S. agalactiae isolates
# [14] = MIC […], 20 S. agalactiae isolates
# [15] = B. ovatus MMX 3504 (so in the source)
# [16] = MIC 0.015 μg/mL, 20 S. agalactiae isolates
# [17] = MIC 1 μg/mL, 20 S. agalactiae isolates
compound,measurement,setting,value
Cc1ncc([N+](=O)[O-])n1CCO [MTZ],% S,Bacteroides fragilis; [8],100%
same,MIC50,Bacteroides fragilis; [8],1 µg/mL
same,MIC90,Bacteroides fragilis; [8],2 µg/mL
same,MIC range,Bacteroides fragilis; [8],0.25 to 2 µg/mL
same,Mode,Bacteroides fragilis; [8],1 µg/mL
CO/N=C(\C(=O)N[C@@H]1C(=O)N2C(C(=O)O)=C(CSc3nc(=O)c(=O)[nH]n3C)CS[C@H]12)c1csc(N)n1 [ceftriaxone],MIC,B. vulgatus ATCC 8482; B. vulgatus ATCC 8482,2 µg/mL
same,MIC,B. vulgatus ATCC 8482; [9],2 µg/mL
same,time-kill kinetics outcome (bactericidal = ≥3 log reduction in CFU per mL),E. coli ATCC 35218,bactericidal at 24 hr at 4× and 8×MIC
same,Rat oral exposure lower than iv,[1]; 50 mg/kg,mg/kg (200-fold
same,Rat oral exposure (Dose),[1]; 50 mg/kg,0.9 μg*hr/mL at 50
same,MPC (mutation prevention concentration),Bacteroides spp.; B. vulgatus ATCC 8482,32 µg/mL
same,Spontaneous Mutation Frequency,"Bacteroides spp.; B. vulgatus ATCC 8482, 4× the MIC",> 8.69×10^−8
same,Spontaneous Mutation Frequency,"Bacteroides spp.; B. vulgatus ATCC 8482, 8× the MIC",≤ 1.74×10^−10
same,isolates resistant,Bacteroides fragilis,Thirty-three
same,isolates with intermediate resistance,Bacteroides fragilis,27%
same,% I,Bacteroides fragilis; [8],27%
same,% R,Bacteroides fragilis; [8],33%
same,% S,Bacteroides fragilis; [8],40%
same,MIC50,Bacteroides fragilis; [8],32 µg/mL
same,MIC90,Bacteroides fragilis; [8],>128 µg/mL
same,MIC range,Bacteroides fragilis; [8],8 to 128 µg/mL
same,MIC50,Bacteroides fragilis; [10],32 µg/mL
same,MIC90,Bacteroides fragilis; [11],> 128 µg/mL
same,Mode,Bacteroides fragilis; [8],16 µg/mL
same,overall time-kill outcome,[2],bactericidal activity
same,MIC,"B. ovatus MMX 3503 [3]; Bacteroides ovatus, MMX3503, B. ovatus MMX 3504 (so in the source)",> 128 µg/mL
same,MIC,"B. ovatus MMX 3503 [3]; Bacteroides ovatus, MMX3503, broth microdilution",> 128 µg/mL
same,MIC,B. ovatus MMX 3503 [3]; broth microdilution,128 µg/mL
same,CLSI QC range (agar MIC),[4],0.03 to 0.12 µg/mL
same,Cumulative percentage of isolates inhibited at MIC,[5]; [12],25.0%
same,Number of test isolates at MIC,[5]; [12],5
same,Cumulative percentage of isolates inhibited at MIC,[5]; [13],90.0%
same,Number of test isolates at MIC,[5]; [13],1.3
same,Cumulative percentage of isolates inhibited at MIC,[5]; [14],100.0%
same,Number of test isolates at MIC,[5]; [14],2
same,CLSI QC range (MIC),E. coli ATCC 25922,(0.03-0.12) μg/mL
same,"MIC, CLSI QC range",[6],(0.03-0.12)^1 μg/mL
same,% S,Enterobacteriaceae,87.5%
same,MIC50,Enterobacteriaceae,≤1 µg/mL
same,MIC90,Enterobacteriaceae,8 µg/mL
C[C@@H](O)[C@H]1C(=O)N2C(C(=O)O)=C(S[C@@H]3CN[C@H](C(=O)N(C)C)C3)[C@H](C)[C@H]12 [meropenem],MIC,B. vulgatus ATCC 8482; B. vulgatus ATCC 8482,0.12 µg/mL
same,MIC,B. vulgatus ATCC 8482; [9],0.12 µg/mL
same,time-kill kinetics outcome (bactericidal = ≥3 log reduction in CFU per mL),E. coli ATCC 35218,rapid killing and bactericidal activity at the two higher concentrations at 24 hr
same,Rat oral exposure (Dose),[1],~4%
same,colonies on selection plates,Bacteroides spp.,No Streptococcus spp. or Bacteroides spp. colonies were selected
same,isolates with intermediate resistance,Bacteroides fragilis,Twenty
same,relative activity among drugs tested,Bacteroides fragilis,meropenem and rifaximin had similar activity
same,% I,Bacteroides fragilis; [8],20%
same,% S,Bacteroides fragilis; [8],80%
same,MIC50,Bacteroides fragilis; [8],0.25 µg/mL
same,MIC90,Bacteroides fragilis; [8],>8 µg/mL
same,MIC50,Bacteroides fragilis; [10],0.25 µg/mL
same,MIC90,Bacteroides fragilis; [11],> 8 µg/mL
same,Mode,Bacteroides fragilis; [8],0.25 µg/mL
same,overall time-kill outcome,[2],bactericidal activity
same,MIC,B. ovatus MMX 3503 [3]; [15],0.12 µg/mL
same,MIC,"B. ovatus MMX 3503 [3]; Bacteroides ovatus, MMX3503, broth microdilution, read-out: MIC",0.12 µg/mL
same,CLSI QC range (agar MIC),[4],0.03 to 0.25 µg/mL
same,Cumulative percentage of isolates inhibited at MIC,[5]; [16],20.0%
same,Number of test isolates at MIC,[5]; [16],4
same,Cumulative percentage of isolates inhibited at MIC,[5]; [12],95.0%
same,Number of test isolates at MIC,[5]; [12],15
same,Cumulative percentage of isolates inhibited at MIC,[5]; [13],100.0%
same,Number of test isolates at MIC,[5]; [13],1
same,CLSI QC range (MIC),E. coli ATCC 25922,(0.008-0.06)^1 μg/mL
same,"MIC, CLSI QC range",[6],(0.008-0.06) μg/mL
same,time-kill kinetics outcome (bactericidal = ≥3 log reduction in CFU per mL),B. ovatus MMX 3503 [7],"bactericidal at 8×MIC at 6, 24 and 48 hr; at 4×MIC at 24 and 48 hr; and at 2×MIC at 24 hr with rebound growth at 48 hr"
same,% S,Enterobacteriaceae,98.3%
same,MIC50,Enterobacteriaceae,≤0.12 µg/mL
COc1c(N2C[C@@H]3CCCN[C@@H]3C2)c(F)cc2c(=O)c(C(=O)O)cn(C3CC3)c12 [moxifloxacin],Cumulative percentage of isolates inhibited at MIC,[5]; [13],15.0%
same,Number of test isolates at MIC,[5]; [13],3
CO[C@H]1/C=C/O[C@@]2(C)Oc3c(C)c(O)c4c(O)c(c5c(nc6cc(C)ccn65)c4c3C2=O)NC(=O)/C(C)=C\C=C\[C@H](C)[C@H](O)[C@@H](C)[C@@H](O)[C@@H](C)[C@H](OC(C)=O)[C@@H]1C [rifaximin],MIC,B. vulgatus ATCC 8482; B. vulgatus ATCC 8482,0.25 µg/mL
same,MIC,B. vulgatus ATCC 8482; broth microdilution,0.25 µg/mL
same,time-kill kinetics outcome (bactericidal = ≥3 log reduction in CFU per mL),E. coli ATCC 35218,bacteriostatic at 8× the MIC with regrowth at 24 hr for both 2× and 4× the MIC
same,MIC50,Bacteroides fragilis,0.25 µg/mL
same,MIC90,Bacteroides fragilis,0.25 µg/mL
same,relative activity among drugs tested,Bacteroides fragilis,meropenem and rifaximin had similar activity
same,MIC50,Bacteroides fragilis; [8],0.25 µg/mL
same,MIC90,Bacteroides fragilis; [8],0.25 µg/mL
same,Mode,Bacteroides fragilis; [8],0.25 µg/mL
same,overall time-kill outcome,[2],bacteriostatic activity and regrowth was typically observed
same,MIC,B. ovatus MMX 3503 [3]; [15],2 µg/mL
same,MIC,B. ovatus MMX 3503 [3]; broth microdilution,1 µg/mL
same,Cumulative percentage of isolates inhibited at MIC,[5]; listed as RFX,75.0% and 100.0%
same,time-kill kinetics outcome (bactericidal = ≥3 log reduction in CFU per mL),B. ovatus MMX 3503 [7],rebounded to no-drug control levels at later time points
same,rapid killing,B. ovatus MMX 3503 [7]; 6 hr,~2 log10 CFU
"CN[C@H](CC(C)C)C(=O)N[C@H]1C(=O)N[C@@H](CC(N)=O)C(=O)N[C@H]2C(=O)N[C@H]3C(=O)N[C@H](C(=O)N[C@H](C(=O)O)c4cc(O)cc(O)c4-c4cc3ccc4O)[C@H](O)c3ccc(c(Cl)c3)Oc3cc2cc(c3O[C@@H]2O[C@H](CO)[C@@H](O)[C@H](O)[C@H]2O[C@H]2C[C@](C)(N)[C@H](O)[C@H](C)O2)Oc2ccc(cc2Cl)[C@H]1O [vancomycin, Vancomycin]",MIC,"B. vulgatus ATCC 8482; Phocaeicola vulgatus, ATCC8482, B. vulgatus ATCC 8482, read-out: MIC",> 16 µg/mL
same,MIC,"B. ovatus MMX 3503 [3]; Bacteroides ovatus, MMX3503, B. ovatus MMX 3504 (so in the source), read-out: MIC",> 16 µg/mL
same,Cumulative percentage of isolates inhibited at MIC,[5]; [17],100.0%
same,Number of test isolates at MIC,[5]; [17],1
piperacillin/tazobactam [piperacillin-tazobactam],MIC,B. vulgatus ATCC 8482; B. vulgatus ATCC 8482,4 µg/mL
same,MIC,B. ovatus MMX 3503 [3]; [15],>16 µg/mL
